The source of these data is patent US20100151104A1, “Preservative System For Beverages Based On Combinations Of Trans-Cinnamic Acid, Lauric Arginate, And Dimethyl Dicarbonate” (priority 2008, published 2010).

In experiment [1] the test system is vegetative forms of yeast, mold, and bacteria. The note with it: reported by the manufacturer of DMDC; cited from earlier work.
Experiment [2] has as its system bio-indicator organisms; mold strains M1 (Paecilomyces/Byssochalmys nieva) and M6 (Talaromyces flavus var. flavus). Briefly: Example 7: growth/no growth in green tea beverage pH 5.5, 16 weeks. In kind it is cell-based. The conditions noted are these: pH 5.5, read-out: minimum inhibitory concentration of DMDC required to preserve. Here is the method:
A single preparation of base beverage was employed to prepare each of five tests. The beverage formulation chosen mimics that of a green tea beverage composed per liter as follows: 170 mg Citrus Pectin; 500 mg honey granules 550 mg Acerola Dry Vitamin C, 1,332 mg green tea solid, 2,046 mg tea flavor; 65,590 mg granulated sucrose. The ingredients were added to RO water adjusted to 90 ppm hardness with calcium chloride and magnesium chloride. The acidity of the product was adjusted to pH 5.5 with a mixture of succinic acid and sodium succinate dibasic hexadydrate. The total concentration of succinic acid in solution was approximately 8 mM.
Each of the five tests employed the same bio-indicator organisms; Growth (+) versus no growth (−) established by visual inspection or spectrophotometrically. The organisms and the key (code) employed in FIGS. 6a-6e are as follows: Spores, M1 Paecilomyces/Byssochalmys nieva, Pespi isolate D16; C-7UP, Brettanomyces species, Pepsi Isolate; Spores, M6, Talaromyces flavus var. flavus ATCC 10512; Brettanomyces species, Pepsi isolate H202; Acetobacter species, Pepsi isolate “Atlanta”; an ascospore preparation of Saccharomyces cerevisiae strain 99(Spore) and Y3, Zygosaccharomyce baili, Pepsi isolate 906;. Samples were incubated for period of 16 weeks at 25° C. in vessels protective against evaporation. The results are depicted in FIGS. 6a-6e.

The subject of experiment [3] is bio-indicator organisms (Zygosaccharomyce baili, Brettanomyces species, Saccharomyces cerevisiae, Paecilomyces lilacinus, Zygosaccharomyces bisporus …). Nature of the experiment: Example 4: efficacy of DMDC alone in commercial product types and apple juice medium, 16 weeks. It is filed as cell-based. Here is the method:
The efficacy of DMDC in a range of existing commercial product types was established in order to establish a baseline for future testing of products in development. A separate test of efficacy of DMDC alone in the test apple juice medium is used in comparison. Simply, four different products that are packaged without preservatives (aseptic package) were purchased from local markets.
The base test beverage formulation (Apple Juice Medium) was prepared as in other tests herewithin, and consisted of 4% apple juice, 68 g sucrose/L, 52 g glucose/L, 2 g fructose/L prepared in batch water that was formulated to 90 ppm hardness with calcium chloride and magnesium chloride. A pH of 3.4 was achieved through combinations of malic acid and sodium malate
Product was transferred to test vessels and vessels were inoculated with bio-indicator organisms. Immediately after inoculation, the test vessels were sealed with septum seal that allowed dosing of DMDC by Hamilton syringe. Dimethyl dicarbonate stock solution consisted of 1 ml of dimethyl dicarbonate (1.25 g) in 49 ml of 100% ethanol (25 mg/ml). […] After dosing with DMDC, the content of each test vessel was immediately mixed by vortex mixing. All testing was performed at ambient and test solutions were at ambient. […]

The nature of experiment [4]: Example 8: growth/no growth in energy beverage pH 2.85, 16 weeks. It is filed as cell-based. The note with it: pH 2.9, read-out: minimum inhibitory concentration of DMDC required to preserve. Here is the method:
A single preparation of base beverage was employed to prepare each of five tests. The beverage formulation chosen mimics that of a Energy beverage and is composed per liter as follows: 209 mg Rebaudioside A (REB A), 248 mg Potassium Citrate 248 mg Flavor-vitamin mixture, 248 mg calcium lactate, 298 mg Xanthan gum, 668 mg citric acid 995 mg color, 995 mg Pomegranate flavor, 24900 mg erythritol. The ingredients were added to RO water adjusted to 90 ppm hardness with calcium chloride and magnesium chloride. The acidity of the product was adjusted to pH 2.85 with a mixture of citric acid and sodium citrate.
Each of the five tests employed the same bio-indicator organisms; Growth (+) versus no growth (−) established by visual inspection or spectrophotometrically. The organisms and the key (code) employed in FIGS. 7a-7e are as follows: Spores, M1 Paecilomyces/Byssochalmys nieva, Pespi isolate D16; C-8UP, Brettanomyces species, Pepsi Isolate; M6, Talaromyces flavus var. flavus ATCC 10512; Brettanomyces species, Pepsi isolate H2O2; Spores, M12 Penicillium camebertii (Pepsi isolate D1)”; an ascospore preparation of Saccharomyces cerevisiae strain 99(Spore) and Y3, Zygosaccharomyce baili Pepsi isolate 906;. Samples were incubated for period of 16 weeks at 25° C. in vessels protective against evaporation. The results are depicted in FIGS. 7a-7e.

The subject of experiment [5] is bio-indicator organisms; mold strains M1 (Paecilomyces/Byssochalmys nieva) and M6 (Talaromyces flavus var. flavus). Briefly: Example 6: growth/no growth in enhanced water product pH 4.5, 16 weeks. In kind it is cell-based. The conditions noted are these: FIG. 5a; enhanced water pH 4.5; DMDC singular antimicrobial agent. Here is the method:
A single preparation of base beverage was employed to prepare each of five tests. The beverage formulation chosen mimics that of an enhanced water product and is composed per liter as follows 37.2 mg Acesulfame K+; 100mg Vitamin E acetate, 54.1 mg Vitamin B mix, 331 mg sucralose 748 mg grape flavor, 3236 mg of liquid sucrose, 26.5 mg antifoam, 20 mg polysorbate. The ingredients were added to RO water adjusted to 90 ppm hardness with calcium chloride and magnesium chloride. The acidity of the product was adjusted to pH 4.5 with a mixture of succinic acid and Sodium succinate dibasic hexadydrate. The total concentration of succinic acid in solution was approximately 8 mM.
Each of the five tests employed the same bio-indicator organisms; Growth (+) versus no growth (−) established by visual inspection or spectrophotometrically. The organisms and the key (code) employed in FIGS. 5a-5e are as follows: Spores, M1 Paecilomyces/Byssochalmys nieva, Pespi isolate D16; C-7UP, Brettanomyces species, Pepsi Isolate; Spores, M6, Talaromyces flavus var. flavus ATCC 10512; Brettanomyces species, Pepsi isolate H202; Acetobacter species, Pepsi isolate “Atlanta”; an ascospore preparation of Saccharomyces cerevisiae strain 99(Spore) and Y3, Zygosaccharomyce baili, Pepsi isolate 906;. Samples were incubated for period of 16 weeks at 25° C. in vessels protective against evaporation. […]

Experiment [6] relates to bio-indicator organisms (Zygosaccharomyce baili, Brettanomyces species, Saccharomyces cerevisiae, Paecilomyces lilacinus, Zygosaccharomyces bisporus …). The conditions noted are these: FIG. 2a; absence of cinnamic acid; pH 3.4; 16 weeks.
Description: A single preparation of base beverage was employed to prepare each of five tests and consisted of 4% apple juice, 68 g sucrose/L, 52 g glucose/L, 2 g fructose/L prepared in batch water that was formulated to 90 ppm hardness with calcium chloride and magnesium chloride. A pH of 3.4 was achieved through combinations of malic acid and sodium malate for all preparations regardless of the presence or absence of lauric arginate or cinnamic acid. The total combined quantity of sodium malate and malic acid was near constant, but the ratio of malic acid and malate varied slightly given the presence or absence of lauric arginate or cinnamic acid. […] Where required, lauric arginate or cinnamic acid was supplemented from separately prepared stock solutions. Dimethyl dicarbonate was delivered by means of hypodermic needle (Hamilton syringe) through septum that sealed the test vessel against loss of moisture. Dimethyl dicarbonate stock solution consisted of 1 ml of dimethyl dicarbonate (1.25 g) in 49 ml of 100% ethanol (25 mg/ml).
Each of the five tests employed the same bio-indicator organisms; Growth (+) versus no growth (−) established by visual inspection or spectrophotometrically. […]
The test system of experiment [7] is mold spores (Byssochlamyus nieva and Paecilomyces variotti). Nature of the experiment: Germination of bio-indicator mold spores with ascorbic acid and potassium sorbate. It is filed as cell-based. The text has this: Ascorbic acid may be incorporated as part of the microbiological chemical preservation system. Ascorbic acid is not generally considered an antimicrobial. Instead, ascorbic acid is understood to “preserve” food ingredients against oxidation. In this respect, ascorbic acid is understood to be “anti-oxidant” preservative.

In the case of `COC(=O)OC(=O)OC` [DMDC, dimethyl dicarbonate], in experiment [1], the “concentration required to stabilize beverage for 16 weeks” value is reported as “at least 250 mg/liter”. Also, the MIC was over 225 µg/mL in experiment [2] and under 125 µg/mL in experiment [4]. Moreover, the stability against spoilage entry in experiment [3] (commercial tea beverage (pH 3.3) with honey, DMDC 2.61 mM (350 ppm)) is listed as “unstable against spoilage”. For the same compound, the “DMDC concentration that stabilized the formulation” value in experiment [3] (green tea formulation containing lemon flavor, DMDC alone) turned out to be 0.75 mM. Besides, the “concentration of DMDC tolerated by M1 and M6” value in experiment [5] was at least 200 ppm. Besides, the “DMDC required to inhibit the growth of all bio-indicator organisms” value in experiment [6] is recorded as 0.95 mM.
As to `C/C=C/C=C/C(=O)[O-].[K+]` [Potassium sorbate, Potassium Sorbate, reference compound], in experiment [7] (Potassium sorbate alone at concentrations below 200 ppm), the “prevention of spore germination” value is listed as “unable to prevent spore germination”.
With `O=C1O[C@H]([C@@H](O)CO)C(O)=C1O` [ascorbic acid], in experiment [7] (ascorbic acid alone at 400 ppm), the “effect on spore germination” value was “able to retard germination”.
